# “Also recorded” adds a separate entry of the source.
# Key:
# [1] = Flow absorption study in PDMS microfluidic device / compound distribution kit; type: physicochemical
# From the text: An exemplary method may follow the method of an intended experiment or study. As an example, the compound distribution kit may be used with microfluidic devices. An exemplary method for use with microfluidic devices may follow an intended study method with the following changes: no coatings, no cell seeding, and reduced number of compound doses. In one embodiment, there may not be a need to perform coatings on the microfluidic device that are related to biological aspects of the experiment. Some coatings, such as those that change the chemistry of the microfluidic device material makeup, may need to be done, especially if they may affect compound absorbency. It one embodiment, coatings are done with the compound distribution kit at the discretion of the user. In one embodiment, cell seeding is not needed. In one embodiment, if the intended-study protocol compares several concentrations of a test compound, the absorption control experiment need only be run for one of these concentrations. In one embodiment, it is recommended to use the highest compound concentration planned for the intended study, in order to maximize quantification (e.g. LCMS) sensitivity. However, a lower concentration of test compound may be selected if there are concerns about the compound's solubility limits or it crashing out of solution at the higher concentration. Crashing out of solution is when the concentration of a solute in a solution reaches a point where the solute precipitates. In one embodiment, the compound is dosed for the same duration, at the same flow rate, in the same microfluidic channel(s) as per the intended protocol, experiment or study. That is, if the intended study specifies dosing only in a first channel, with no compound in a second channel, then the same method would be applied during the use of the compound distribution kit. In one embodiment, media and solution should be the same during use of the compound distribution kit as in the intended study. In one embodiment, the same media or solution, as well as any additives or supplements, as medium composition and additives can interact with test compounds (e.g. protein binding). In one embodiment, media or solutions should also be equilibrated in the same manner, such as degassing and preheating. In one embodiment, effluent samples taken during use of the compound distribution kit should be collected at the same time as the intended study. Compound distribution can be a highly dynamic process, and as such matching time points may be able to ensure that the results of the compound distribution kit correspond closely to the intended study. […]
# [2] = Time-dependent material absorption test in vials, PDMS; type: physicochemical; settings: for absorption into PDMS: recovered concentration compared to dosing concentration
# Procedure: (§1) A method for ascertaining the absorption of a specific small-molecule into a polymer was developed. The output of this method are the fundamental parameters that fully define the absorption of a specific compound into the material tested; specifically, the diffusivity and partition coefficient are ascertained. […] The steps for ascertaining this absorption is as follows: • 1. Dissolve the small molecule in an aqueous phase (medium) and incubate the solution (30) with the tested material (31), such as in a vial (29). The incubation should be long enough so that diffusion is not limiting absorption and the transport into the material is at equilibrium with the transport of the compound out of the material and into the aqueous phase. • 2. Sample media from the vials at a number of time points. • 3. Measure the concentration of the small molecule remaining in the aqueous phase (30) using a mass spectrometer, plate reader, etc. from the media sampled. • 4. Curve-fit the measured data to quantify the absorption and diffusion parameters.
# (§2) Each experiment includes a number of controls and test conditions. Using multiple controls and test conditions allows absorption to the vial and well-plate to be characterized, as well as absorption versus adsorption to the tested material, as well as yielding the time-dependent nature of absorption into the material. […] The goals of the experiments are to directly quantify partitioning of the compound, or compound loss at equilibrium (kinetics), and to directly quantify diffusion of the compound, or time-dependent compound loss (dynamics).
# (§3) Single time point experiments are only capable of extracting kinetics, not dynamics. Time-dependent studies capture not only equilibrium endpoints (K), but also time-dependent changes/dynamics (D). One-dimensional computational models are used to fit experimental results of time-dependent studies. […] Once the particular curve is known, the parameters which defined that curve are taken as the fundamental parameters defining the material-compound absorptive interaction.
# [3] = recovered concentration compared to dosing concentration
# From the text: Curve-fit the measured data to quantify the absorption and diffusion parameters.
# [4] = Time-dependent material absorption test in vials, SEBS; type: physicochemical; settings: for absorption into SEBS: recovered concentration compared to dosing concentration
# Procedure: as §1, §2, §3
# [5] = First round absorption study on Parylene coated SEBS and PDMS gaskets (plate reader); type: physicochemical; settings: coating thickness 2 μm and 8 μm; exposure 0, 14, 40 and 72 hours
# From the text: Two quantitative studies were run on Parylene coated materials in order to assess its effectiveness in minimizing small molecule absorbency. In the first study Parylene coated SEBS and Parylene coated PDMS were both exposed to Rhodamine B and Coumarin. In the second study the absorption of Parylene coated SEBS and Parylene coated E140 were compared to the absorption of known low-absorbing materials, such as glass and COP.
# In the first round of absorption studies, SEBS and PDMS gaskets were coated with Parylene at two thicknesses: 2 μm and 8 μm. Parylene-coated gaskets were exposed to Rhodamine B and Coumarin for 0, 14, 40 and 72 hours. The remaining concentration of Rhodamine B and Coumarin in the exposure solution were measured on a plate reader. Each condition was tested on two gaskets. Limited replicates were available due to the number of conditions run. This “shotgun approach” was used in order to try many coating conditions and quickly determine the best options. […] FIG. 33B depicts the fraction of Rhodamine B recovered from the solutions for coatings of varying thickness on two materials known to absorb. […] One observation from the experiment was that the Parylene may crack, leading to gasket absorption. Another observation from the experiment was that Parylene adhesion to the PDMS and SEBS was poor, resulting in easy removal of Parylene. […]
# [6] = Second round absorption study: Parylene coated SEBS and E140 compared with glass, COP and control solution; type: physicochemical
# From the text: Two quantitative studies were run on Parylene coated materials in order to assess its effectiveness in minimizing small molecule absorbency. In the first study Parylene coated SEBS and Parylene coated PDMS were both exposed to Rhodamine B and Coumarin. In the second study the absorption of Parylene coated SEBS and Parylene coated […] were compared to the absorption of known low-absorbing materials, such as glass and COP. In the second round of absorption studies, after parylene-coating process optimization, the absorption of Parylene coated SEBS and Parylene coated […] were compared to both the absorption of known low-absorbing materials, such as glass and COP, and a control solution of the drug not in contact with a material. The coated materials were exposed to a solution carrying a known concentration of the drug, Coumarin. The solution was tested three times to quantify the remaining concentration of the Coumarin, before exposure to the material, at 22 hours and at 92 hours. […] SEBS absorbed more of the compound than […].
# [7] = Flow study of microfluidic device in fluidic communication with perfusion manifold assembly; type: physicochemical
# From the text: FIGS. 98A and 98B show a comparison between a computational (COMSOL) model results and actual experimental results for cellular exposure ranges of the small-molecule compound Coumarin. […] For this experiment the microfluidic device was in fluidic communication with a perfusion manifold assembly. […] FIGS. 99A and 99B show a comparison between a computational (COMSOL) model results and actual experimental results for cellular exposure ranges of the small-molecule compound Coumarin. […] For this experiment the microfluidic device was in fluidic communication with a perfusion manifold assembly.
# [8] = Fluorescent imaging of Parylene-coated gaskets exposed to Rhodamine B; type: physicochemical
# From the text: Parylene-coated PDMS gaskets were exposed to the fluorescent molecule Rhodamine B and fluorescently imaged. […] However, the absorption is primarily localized to areas with sharp corners. […] Parylene-coated SEBS gaskets were exposed to the fluorescent molecule Rhodamine B and fluorescently imaged as well. […] However, the absorption is primarily localized to areas with sharp corners. Some absorption can be seen inside of the via, but it was minimal, difficult to visualize, and quite possibly an optical artifact unrelated to absorption.
# [9] = Fluorescent molecule absorption in perfusion manifold assemblies under flow; type: physicochemical; settings: 30 μL/hr for 38 hours
# Procedure: Fluorescent molecule Rhodamine B (a fluorescent molecule that is also moderately absorbing into PDMS and SEBS) was dissolved in a buffer, flowed through a perfusion manifold assembly (14) and absorbing microfluidic device (12) fabricated out of PDMS at 30 μL/hr for 38 hours on a culture module. The perfusion manifold assemblies (14) were rinsed with buffer not containing the fluorescent molecule at 200 μL/hr for an hour before the start of the experiment.
# Following the experiment, the perfusion manifold assemblies (14) were disassembled and the vias (35) of the capping, gasketing and backplane assembly or fluidic layer assembly (34), as well as the perfusion manifold assembly (14) resistors (27), were imaged with fluorescent microscopy. FIG. 25A depicts the resulting fluorescence in the fluidic layer assembly (34) of an absorbing perfusion manifold assembly (14) comprising a combined gasketing and capping layer (26). FIG. 25B depicts the resulting fluorescence on one aspect the invention described herein, a low-absorbing perfusion manifold assembly comprising both a low-absorbing capping and low-absorbing gasketing layer. In the embodiment of the perfusion manifold assembly (14) used in the experiment, the capping layer was fabricated from COP and the gasketing layer was fabricated out of SEBS coated with Parylene. Bright white colors in FIGS. 25A and 25B correlate to greater degree of absorption of the fluorescent molecule Rhodamine B.
# [10] = tested before exposure, at 22 hours and at 92 hours
compound,measurement,setting,value
"C=C(C)[C@@H]1CCC(C)=C[C@H]1c1c(O)cc(CCCCC)cc1O [CBD, cannabidiol]",measured outlet concentrations of the compound,[1]; microfluidic device fabricated entirely from PDMS,0
same,absorption or loss of compound in microfluidic device fabricated from entirely PDMS,"[1]; several flow rates, even at the highest flow rate",complete/total absorption or loss of compound
CN(C)CCC=C1c2ccccc2CCc2ccccc21 [amitriptyline],absorption into PDMS,[2],absorb into PDMS
Cc1ncc2n1-c1ccc(Cl)cc1C(c1ccccc1F)=NC2 [Midazolam],PDMS partition value (K),[2],201
same,absorption into PDMS,[2],absorbed significantly
same,"absorption into glass, polypropylene, polystyrene or COP",[3],did not absorb significantly
same,SEBS partition value (K),[4],4.05
same,absorption into SEBS,[4],absorbed somewhat
CCc1cccc2cc(C(O)CNC(C)(C)C)oc12 (stereo not shown) [Bufuralol],PDMS partition value (K),[2],greater than 216
same,recovered concentration from the PDMS experiments,[2]; LCMS,below the lower limit of detection
same,absorption into PDMS,[2],absorbed almost entirely
same,"absorption into glass, polypropylene, polystyrene or COP",[3],did not absorb significantly
same,SEBS partition value (K),[4],4.77
same,absorption into SEBS,[4],absorbed somewhat
O=c1ccc2ccccc2o1 [Coumarin],effect of flow rate on absorption into PDMS,"[1]; 60 μL/hr versus 150 μL/hr, bottom channel sampled",less compound is absorbed into PDMS at faster flow rates
same,absorption by Parylene coated PDMS and SEBS,[5],some Coumarin was absorbed
same,absorption into materials coated with Parylene,"[6]; Parylene coated SEBS and E140, 22 and 92 hours",do not absorb significant amounts
same,absorption into glass and COP compared to control solution,[6]; [10],did not absorb
same,absorption into uncoated SEBS and E140,[6]; [10],both absorb; also recorded: SEBS absorbed more of the compound than E140
same,absorption into SEBS of the perfusion manifold assembly,[7],especially susceptible to absorption
CCN(CC)c1ccc2c(-c3ccccc3C(=O)O)c3ccc(=[N+](CC)CC)cc-3oc2c1 [Rhodamine B],rate and extent of absorption,[1]; flow study outlet concentrations,"lower rate of absorption, but higher extent of absorption"
same,absorption by Parylene coated PDMS and SEBS,[5],minimal Rhodamine B was absorbed
same,absorption in Parylene-coated SEBS gaskets (microscopy),[8],some minimal absorption is present
same,absorption within the microfluidic device ports of Parylene-coated PDMS gaskets,[8]; ports leading into the channels,No absorption was seen
same,absorption in Parylene-coated PDMS gaskets (microscopy),[8]; whole gasket,some absorption is present but localized to areas that might not have been fully coated
same,absorption in perfusion manifold assemblies with COP capping layer and Parylene coated SEBS gasketing layer,[9],did not absorb a significant amount
same,absorption in perfusion manifold assembly with COP capping layer and non-coated SEBS gasketing layer,[9],absorbed the fluorescent molecule
same,absorption in perfusion manifold assembly with combined gasketing and capping layer,[9],absorbed the fluorescent molecule
same,absorption in resistors capped with COP,[9],very little
same,absorption in resistors capped with SEBS,[9],relatively high extent
CN1C(=O)CN=C(c2ccccc2)c2cc(Cl)ccc21 [Diazepam],fraction of Diazepam absorbed by PDMS,[2]; by hour 12 of contact with PDMS,⅔ and two thirds

# Reference: patent US12019083B2, “Compound distribution in microfluidic devices” (EMULATE, Inc., priority 2019, dated 2024)
